Oligonucleotides are written 5' to 3', each unit as a sugar letter and its base; * is a phosphorothioate linkage, no mark a phosphodiester; rarer units and linkages stand in square brackets, end groups in braces. Plain capitals give the bases only. d = 2'-deoxy (DNA); r = 2'-OH (RNA)
Molecular target: UBE2E3
Assay: reporter assay of Huesken 2005
Conditions: siRNA
Further: test concentration or dose not given here.

Going from “sense rCrArGrUrGrCrUrGrGrGrCrCrUrArArArGrGrAdTdT / antisense rUrCrCrUrUrUrArGrGrCrCrCrArGrCrArCrUrGdCdA” to “sense rArArArArCrCrUrUrCrUrGrCrCrArCrCrCrArGdTdT / antisense rCrUrGrGrGrUrGrGrCrArGrArArGrGrUrUrUrUdCdT”, the normalised inhibition (eCFP-eYFP dual reporter) falls from 73.2% to 32.1%.

First: sense rArCrUrGrCrArArCrCrCrUrGrCrGrGrArUrCrCdTdT / antisense rGrGrArUrCrCrGrCrArGrGrGrUrUrGrCrArGrUdCdT
Second: sense rArCrArGrGrArUrArGrCrCrArGrArCrArGrUrGdTdT / antisense rCrArCrUrGrUrCrUrGrGrCrUrArUrCrCrUrGrUdCdG
The normalised inhibition (eCFP-eYFP dual reporter) of the first is higher: 71.1% for the first, 55.2% for the second.

Compared with “sense rArUrUrUrGrUrUrCrCrCrUrUrUrUrGrArCrArGdTdT / antisense rCrUrGrUrCrArArArArGrGrGrArArCrArArArUdAdG”, “sense rGrArUrArUrCrArCrArUrUrUrUrCrArUrCrArGdTdT / antisense rCrUrGrArUrGrArArArArUrGrUrGrArUrArUrCdCdA” is higher in normalised inhibition (eCFP-eYFP dual reporter): 47.8% for the first, 57.6% for the second.

First: sense rGrUrGrCrUrArArArArGrArArUrUrCrArGrArAdTdT / antisense rUrUrCrUrGrArArUrUrCrUrUrUrUrArGrCrArCdTdA
Second: sense rGrCrArArCrArUrCrArArCrArGrUrCrArGrGrGdTdT / antisense rCrCrCrUrGrArCrUrGrUrUrGrArUrGrUrUrGrCdAdG
The normalised inhibition (eCFP-eYFP dual reporter) of the first is higher: 81.5% for the first, 66.1% for the second.

Going from “sense rUrGrCrUrGrUrCrUrArUrUrUrGrUrUrCrCrCrUdTdT / antisense rArGrGrGrArArCrArArArUrArGrArCrArGrCrAdAdA” to “sense rGrGrArUrCrCrUrCrUrGrGrUrUrGrGrArArGrCdTdT / antisense rGrCrUrUrCrCrArArCrCrArGrArGrGrArUrCrCdGdC”, the normalised inhibition (eCFP-eYFP dual reporter) falls from 73.4% to 59.8%.

Going from “sense rArUrCrArArCrUrArUrArCrUrUrGrGrUrCrCrAdTdT / antisense rUrGrGrArCrCrArArGrUrArUrArGrUrUrGrArUdCdT” to “sense rGrGrArGrUrCrCrCrGrCrUrUrUrGrArCrUrArUdTdT / antisense rArUrArGrUrCrArArArGrCrGrGrGrArCrUrCrCdAdG”, the normalised inhibition (eCFP-eYFP dual reporter) rises from 59.5% to 69.2%.

Going from “sense rUrCrArGrGrGrArGrUrCrArUrCrUrGrUrCrUrGdTdT / antisense rCrArGrArCrArGrArUrGrArCrUrCrCrCrUrGrAdCdT” to “sense rArArGrGrArGrArUrArArCrArUrUrUrArUrGrAdTdT / antisense rUrCrArUrArArArUrGrUrUrArUrCrUrCrCrUrUdTdA”, the normalised inhibition (eCFP-eYFP dual reporter) rises from 49% to 52%.

Compared with “sense rGrCrUrGrGrGrCrCrUrArArArGrGrArGrArUrAdTdT / antisense rUrArUrCrUrCrCrUrUrUrArGrGrCrCrCrArGrCdAdC”, “sense rGrArCrCrArGrCrGrArGrArCrCrCrArGrCrCrGdTdT / antisense rCrGrGrCrUrGrGrGrUrCrUrCrGrCrUrGrGrUrCdCdG” is lower in normalised inhibition (eCFP-eYFP dual reporter): 67.2% for the first, 54.7% for the second.

First: sense rCrArCrCrArArArCrUrCrUrCrUrArGrCrArArAdTdT / antisense rUrUrUrGrCrUrArGrArGrArGrUrUrUrGrGrUrGdTdT
Second: sense rCrUrCrCrUrArArUrUrGrCrArGrUrGrCrUrGrGdTdT / antisense rCrCrArGrCrArCrUrGrCrArArUrUrArGrGrArGdGdA
The normalised inhibition (eCFP-eYFP dual reporter) of the first is higher: 84.2% for the first, 51.1% for the second.

First: sense rCrUrGrUrArUrArUrGrArArGrGrUrGrGrUrGrUdTdT / antisense rArCrArCrCrArCrCrUrUrCrArUrArUrArCrArGdAdA
Second: sense rCrGrArCrArGrGrArUrArGrCrCrArGrArCrArGdTdT / antisense rCrUrGrUrCrUrGrGrCrUrArUrCrCrUrGrUrCrGdTdG
The normalised inhibition (eCFP-eYFP dual reporter) of the first is lower: 36.8% for the first, 78% for the second.

Going from “sense rGrUrCrArGrGrGrArGrUrCrArUrCrUrGrUrCrUdTdT / antisense rArGrArCrArGrArUrGrArCrUrCrCrCrUrGrArCdTdG” to “sense rGrArArGrGrArGrCrUrArGrCrUrGrArArArUrAdTdT / antisense rUrArUrUrUrCrArGrCrUrArGrCrUrCrCrUrUrCdTdG”, the normalised inhibition (eCFP-eYFP dual reporter) rises from 83.4% to 88.5%.

Compared with “sense rUrUrCrCrGrCrArCrCrArGrArArUrCrUrArUrCdTdT / antisense rGrArUrArGrArUrUrCrUrGrGrUrGrCrGrGrArAdAdG”, “sense rUrArArArGrArCrArArCrUrGrGrArGrUrCrCrCdTdT / antisense rGrGrGrArCrUrCrCrArGrUrUrGrUrCrUrUrUrAdAdG” is higher in normalised inhibition (eCFP-eYFP dual reporter): 42.5% for the first, 43.8% for the second.

Going from “sense rGrGrUrUrArCrUrUrUrCrCrGrCrArCrCrArGrAdTdT / antisense rUrCrUrGrGrUrGrCrGrGrArArArGrUrArArCrCdTdT” to “sense rCrArGrUrGrGrCrArGrUrUrCrArGrArUrGrCrGdTdT / antisense rCrGrCrArUrCrUrGrArArCrUrGrCrCrArCrUrGdCdT”, the normalised inhibition (eCFP-eYFP dual reporter) falls from 91.4% to 53%.
